{"source": "patent US7442681B2", "about": "“Method of inhibiting vascular permeability” (University of Virginia Patent Foundation, priority 2004, dated 2008)", "molecules": {"B1": {"name": "PAK AID: PAK autoinhibitory domain, residues 83-149, cloned into the pDsRed1-N1 vector and expressed by transient transfection (protein, UniProt Q13153 83-149, looked up, fragment)", "chain": "HTIHVGFDAVTGEFTGMPEQWARLLQTSNITKSEQKKNPQAVLDVLEFYNSKKTSNSQKYMSFTDKS", "modifications": "DsRed fusion"}}, "key": {"[1]": {"tested_on": "murine lungs", "assay": "Histology of murine lungs treated with peptide and LPS", "assay_type": "in vivo", "conditions": "mice, peptide 1 mg ip, no LPS", "text": "FIG. 9. Histology of murine lungs treated with PAK blocking peptide and LPS. FIGS. 9A (200× magnification), 9B (400×), and 9C (200×) represent photomicrographic images. […] There is some phosphoPAK staining (visible as brown stain in the original color micrographs) present in epithelial structures, alveolar walls (composed of mixed cell types), and vessel endothelium and smooth muscle. Arrow indicates a normal small vessel with red blood cells and few circulating leukocytes. Tissues were counterstained with hematoxylin.\nFIG. 10. Histology of murine lungs treated with PAK blocking peptide and LPS. FIGS. 10A (200× magnification), 10B (400×), and 10C (200×) represent photomicrographic images. […] Vessel sections (arrow) indicate that LPS highly increases the amount of pPAK in vessel walls, and also produces inflammatory enlargement of vessels, with an increase in numbers of recruited neutrophils and monocytes admixed with red blood cells and intravasating through vessel walls, an indicator of acute inflammation. Some alveolar tissues are completely eroded and filled with exudate and dead cells (FIG. 10C). Tissues were counterstained with hematoxylin.\nFIG. 11. Histology of murine lungs treated with PAK blocking peptide and LPS. FIGS. 11A (200× magnification), 11B (400×), and 11C (200×) represent photomicrographic images. […]"}, "[2]": {"tested_on": "myosin light chain (MLC)", "assay": "MLC phosphorylation, Western blot, BAEC", "assay_type": "cell-based, bovine", "conditions": "25 ng/ml VEGF, 20 μg/ml peptide or 5 μM ML7", "method": "FIG. 6. Regulation of myosin light chain (MLC) phosphorylation by PAK. FIG. 6A: confluent BAEC on FN were treated with vehicle only (+vehicle), 20 μg/ml control peptide (+con pep), 20 μg/ml PAK-blocking peptide (+PAK pep; SEQ ID NO:1), 5 μM ML7 (+ML7) with (+) or without (−) 25 ng/ml VEGF. […] FIG. 6B: as described in A, BAEC were pretreated with 20 μg/ml control peptide (+con pep) or PAK-blocking peptide (+PAK pep) followed by 25 ng/ml of VEGF, 25 ng/ml bFGF, 10 μM histamine, 0.1 units/ml thrombin, or 10 ng/ml of TNF. Upper row, anti-phospho-MLC (pMLC); middle row, total MLC (total MLC); and lower row, pMLC plus an antigenic phospho-peptide (pMLC+AP). […]\nWestern Blots—Confluent cells were starved in 0.5% serum for 18 h, treated as described in the legends to FIGS. 1, 2, 3 and 6, washed with cold PBS, and then harvested by scraping in cold lysis buffer (25 mM Tris, pH 7.4, 1% Nonidet P-40, 0.5% sodium deoxycholate, 137 mM NaCl, 50 μM EDTA, 10 μg/ml each aprotinin and leupeptin, 1 mM phenylmethylsulfonyl fluoride). […] Protein was transferred to polyvinylidene difluoride membrane, and blots were probed with primary antibodies (described under “Fluorescence Imaging”) followed by horseradish peroxidase-conjugated secondary antibodies (Jackson ImmunoResearch, Inc.). […]"}, "[3]": {"tested_on": "BAEC", "assay": "Paracellular pore formation assay, BAEC on filters", "assay_type": "cell-based, bovine", "conditions": "with or without VEGF", "method": "FIG. 5. Effects of PAK on remodeling of cell-cell junctions and the actin cytoskeleton. FIG. 5A: confluent BAECs on coverslips were serum-starved for 18 hours and then treated with 25 ng/ml VEGF. The cells were fixed and stained for phospho-PAK and F-actin. Images show phospho-PAK (pPAK) and F-actin (F-actin) at the indicated times after the addition of VEGF. White arrows indicate pores between cells. Scale bar=50μ. FIG. 5B: phospho-PAK (pPAK) and F-actin (F-actin) are shown in cells prepared and treated as described in FIG. 5A after 60 minutes with VEGF with peptide additions. […]\nMonolayer Permeability and Paracellular Pore Formation Assays—Cells were plated onto FN-coated polycarbonate membranes (3.0-μ pore size; Transwell, Costar) at 6×10^4 cells/cm^2 and cultured for 4 days with medium changes every other day until confluence was reached. […] Medium was harvested from the lower chamber, and HRP activity was determined calorimetrically by absorbance at 490 nm to detect the […] reaction product after 15 minutes of incubation with 0.5 mM guaiacol, 50 mM Na2HPO4, and 0.6 mM H2O2. […] To quantify paracellular pore formation and correlate to permeability, the fixed cell monolayer-covered filters were stained for 2 hours with Coomassie Blue (0.25% in 1:1:2 of methanol:glacial acetic acid:double distilled (dd)H2O), destained in the same solution minus dye, rinsed in ddH2O, and air-dried. […]"}}, "note": "Where no end group is shown, it is not given here."}
{"molecule": "YGRKKRRQRRRGKPPAPPMRNTSTM [PAK-blocking peptide]", "values": [{"measurement": "lung histology, peptide-only", "setting": "[1]", "result": "equivalent to untreated mice"}]}
{"molecule": "O=S(=O)(c1cccc2c(I)cccc12)N1CCCNCC1", "note": "[ML7]", "values": [{"measurement": "MLC phosphorylation induced by VEGF", "setting": "[2]", "result": "inhibited"}]}
{"molecule": "B1", "values": [{"measurement": "formation of pores between adjacent cells", "setting": "[3]", "result": "inhibited pore formation"}]}
